Assay results as given in patent US20090118310A1, “Activated Cdc42-associated kinase (ACK) as a therapeutic target for Ras-induced cancer” (UNIVERSITY OF MEDICINE AND DENTISTRY OF NEW JERSEY, priority 2005, published 2009).
d = 2'-deoxy (DNA); r = 2'-OH (RNA)

Tests used:
[1] = biological target: T1, ACK-1 kinase (GST-ACKD, amino acids 101-441) (Homo sapiens, UniProt Q07912); assay: In vitro kinase assay of GST-ACKD with MBP as substrate; format: biochemical; settings: FIG. 4C dose response, FIG. 4D inhibitors at 200 nmol/L
T1 construct: made in house; host or cells: Escherichia coli BL21 (pGEX-2TH vector)
T1 sequence (Q07912 38-378 H250G): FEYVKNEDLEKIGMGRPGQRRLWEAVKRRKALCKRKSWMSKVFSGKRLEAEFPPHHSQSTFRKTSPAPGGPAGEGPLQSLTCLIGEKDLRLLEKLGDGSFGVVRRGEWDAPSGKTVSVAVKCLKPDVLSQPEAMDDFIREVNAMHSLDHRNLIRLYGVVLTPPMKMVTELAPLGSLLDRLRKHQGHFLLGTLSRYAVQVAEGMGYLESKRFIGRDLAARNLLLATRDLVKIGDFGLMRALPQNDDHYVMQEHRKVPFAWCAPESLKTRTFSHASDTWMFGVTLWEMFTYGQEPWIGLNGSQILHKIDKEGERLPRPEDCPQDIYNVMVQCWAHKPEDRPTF
Experimental: Escherichia coli BL21 cells transformed with pGEX-ACKD were grown at 30° C. to early logarithmic phase and protein expression was induced by adding 0.1 mmol/L isopropyl-L-thio-β-D-galactopyranoside. After 3 hours of incubation, cells were harvested, resuspended in lysis buffer [50 mmol/L Tris (pH 7.5), 0.73 mol/L sucrose, 5 mmol/L MgCl2, 0.5% (v/v) NP40], and disrupted by sonication. Cells were centrifuged at 10,000×g for 30 minutes at 4° C. The supernatant was applied to the glutathione-Sepharose column equilibrated with WED buffer [20 mmol/L Tris (pH 7.5), 2 mmol/L MgCl2, 1 mmol/L DTT] followed by washing with WED buffer. GST-ACKD was eluted with 5 mmol/L glutathione solution in 50 mmol/L Tris (pH 9.6). The eluate was dialyzed in WED buffer overnight and concentrated on a sucrose gradient. The expected size of the fusion protein (GST-ACKD) was confirmed by SDS-PAGE (data not shown), and the protein was used for kinase assays as described below.
The purified GST-ACKD (˜5 μg per reaction) was incubated in kinase reaction buffer [50 mmol/L HEPES-KOH (pH 7.2), 10 mmol/L magnesium acetate, 5 mmol/L DTT] containing 7.5 μg MBP, 100 μmol/L ATP, and 4 μCi [γ-^33P]ATP for 10 minutes at 30° C. Reactions were stopped by addition of 5× Laemmli SDS sample buffer. Proteins were separated by SDS-PAGE, and radioactivity incorporated into the substrate was quantified by using the Kodak Imaging Station 2000R. For kinase inhibition experiments, GST-ACKD was preincubated with individual inhibitors in kinase buffer or kinase buffer alone (control) before the addition of MBP following the same protocol as described above. Experiments were done in triplicate.
Several compounds were screened to examine their potency in inhibiting the kinase activity of ACK in vitro. […]
Different kinase inhibitors were added to the ACK-1 kinase reaction as described above in General Procedures. Phosphorylation of MBP was determined by SDS-PAGE and autoradiography. The level of MBP phosphorylation was determined by scanning MBP bands using Kodak Imaging Station 2000R and plotted as arbitrary units. […]

[2] = system: parental NIH 3T3 cells; assay: Growth of parental NIH 3T3 cells after siRNA transfection (cell counting); format: cell-based; settings: FIG. 2D; counted every 24 hours
Experimental: (§1) A pair of cRNA primers of 21 nucleotides (Dharmacon Research, Inc., Lafayette, Co.) corresponding to the 5′ noncoding of the ACK-1 cDNA (5′-CAUUACCCGCCUAUCUCAUdTdT-3′ and 5′-AUGAGAUAGGCGGGUAAUGdTdT-3′) were annealed to form siRNA (a 19-nucleotide duplex stem with two-nucleotide overhangs on either side) according to the instructions provided by the manufacturer. v-Ha-Ras-transformed or parental NIH 3T3 cells were seeded into 6- or 24-well plates and incubated overnight. The annealed double-stranded ACK siRNA (0.16, 0.4, or 0.8 nmol/L in DMEM) or the sense strand oligonucleotide of ACK siRNA (0.8 nmol/L) was complexed with Cellfectin. siRNA:Cellfectin complexes were added to the serum-free medium and incubated for 3 hours. Cells were then replenished with medium containing 10% FCS and incubated for another 21 hours or as indicated elsewhere. Cells were collected and counted using a hemocytometer; alternatively, cell lysates were prepared for Western blotting. Western blotting was done using ACK-1 antibodies. […]
(§2) After transfection with siRNA at different concentrations (in nmol/L), v-Ha-Ras transformed and parental NIH 3T3 cells were trypsinized and collected every 24 hours. Cell numbers were counted in triplicate.

[3] = system: v-Ha-Ras-transformed NIH 3T3 cells; assay: Growth of v-Ha-Ras-transformed cells after siRNA transfection (cell counting); format: cell-based; settings: FIG. 2C; counted every 24 hours
Experimental: as §1, §2

[4] = system: v-Ha-Ras-transformed NIH 3T3 cells; assay: Induction of apoptosis in v-Ha-Ras-transformed cells (PARP and ICAD cleavage, cytochrome c release, DNA fragmentation); format: cell-based; settings: PARP cleavage, ICAD cleavage, chromosomal DNA fragmentation, FIGS. 3A-D
Experimental: (§3) v-Ras-transformed cells (1×10^5) were seeded in a 35 mm dish and incubated under standard cell culture conditions overnight. Cells in DMEM were treated with Cellfectin, the sense strand of the siRNA:Cellfectin complex or the siRNA:Cellfectin complex for 3 hours. The medium was then replaced with DMEM containing 10% FCS and incubated for 21 hours at 37° C. Cells were harvested and used for Western blotting with specific antibodies or for cell cycle or caspase activation assays. For cell cycle and caspase activation assays, cells were resuspended in PBS containing FITC-VAD-fmk for 10 minutes at room temperature. The cells were then fixed with ice-cold 70% ethanol for 30 minutes at 4° C. Following a rinse with PBS, the cells were resuspended in PBS containing RNase (0.1 mg/mL) and then stained with propidium iodine (10 μg/mL) for 10 minutes at room temperature. Cellular fluorescence from a sample of 15,000 cells was analyzed using a Coulter EPICS Profile II Flow Cytometer (Coulter Electronics, Miami, Fla.). Fluorescence excited at 488 nm was detected using a 525±20 band pass filter. Histograms were analyzed using EPICS Workstation Software (version 4).
v-Ras-transformed cells (5×10^5) were seeded in 35 mm dishes and incubated overnight under standard cell culture conditions. […]

[5] = system: ACK-1; assay: ACK-1 protein level after siRNA transfection (Western blot); format: cell-based
Experimental: as §1
After 24 hours of transfection, cells were collected and lysed with Laemmli SDS sample buffer. Proteins were separated by SDS-PAGE and the level of ACK-1 protein was determined by Western blotting using antibodies against ACK-1. […]

[6] = system: v-Ha-Ras-transformed cells; assay: Cell cycle analysis of v-Ha-Ras-transformed cells by flow cytometry; format: cell-based; settings: data not shown
Experimental: as §3

Compound | inhibition of kinase activity of ACK (MBP phosphorylation) [1] | growth of parental NIH 3T3 cells after transfection [2] | growth of v-Ha-Ras-transformed cells after transfection [3] | induction of apoptosis (apoptosis markers) [4] | level of ACK-1 at 0.8 nmol/L siRNA ([5]; 0.8 nmol/L, v-Ha-Ras-transformed and parental NIH 3T3 cells) | expression of ACK-1 ([5]; siRNA 0.16, 0.4 or 0.8 nmol/L, 24 hours, FIGS. 2A and B) | cell cycle arrest [6]
O=c1c(-c2ccc(O)cc2)coc2cc(O)cc(O)c12 [genistein] | very weak activity |  |  |  |  |  | 
O=c1c(O)c(-c2ccc(O)c(O)c2)oc2cc(O)cc(O)c12 [quercetin] | very weak activity |  |  |  |  |  | 
ACK-1 siRNA: annealed 21-nt pair 5′-CAUUACCCGCCUAUCUCAUdTdT-3′ / 5′-AUGAGAUAGGCGGGUAAUGdTdT-3′ corresponding to the 5′ noncoding of ACK-1 cDNA (chain 1 CAUUACCCGCCUAUCUCAUTT; chain 2 AUGAGAUAGGCGGGUAAUGTT; sugars from the 5' end r19 d2, backbone not given here) |  | did not affect the growth of parental NIH 3T3 cells | inhibited the growth of v-Ha-Ras-transformed cells in a dose dependent manner | induced apoptosis | reduced the level of ACK-1 significantly | reduced the expression of ACK-1 in a dose-dependent manner | did not block v-Ha-Ras-transformed cells at any particular stage of the cell cycle
